Patent publication US12178801B1, “Stable psilocin salts, esters and conjugates and uses thereof” (LOBE SCIENCES LTD., priority 2022, dated 2024)
Where “and” joins values, the source holds several entries; their conditions need not be identical. Identical values can stand only once. Entries after “also recorded” stand apart in the source; their conditions may differ.

Assays:
[1] = Stability studies on psilocin mucate capsule (appearance, HPLC assay and impurities, TM-022-0392); assay type: physicochemical; conditions: for Assay TM-22-0392 (% Label Claim): specification 90.0-110.0%
Method: Additional stability studies were performed on psilocin mucate (also known as psilocin mucic acid salt or conjugate or psilocin galactaric acid salt or conjugate) capsule.
Appearance was evaluated by viewing of the sample on a watchglass over a black and white background.
Assay conditions for Test/Method TM-022-0392 assessing stability and impurities were as follows: • Mobile phase: MPA: 945 mL water, 5 mL H3PO4 pH to 5.7 with NaOH; MPB: Acetonitrile • Diluent: 80:20 Water:MeOH • Standard: 0.4 mg/mL Psilocin Mucic RS in Diluent • Sample:0.4 mg/mL Psilocin Mucic AP in Diluent • HPLC Conditions are depicted in Table 3.
*Additional equilibration may be required System suit: RSD NMT 2.0% (5 injections), Tailing NMT 2.0, Plate count NLT 10000
Calculations were against a bracketing external standard.
Identity of psilocin mucate was verified by ultraviolet (UV) assessment, wherein the UV spectrum of the main peak in the standard matched the UV spectrum of the main peak in the sample and by retention time wherein the retention time ratio was 0.98-1.02.

healthy subjects = experiment: Phase one single-dose study of psilocin mucic acid conjugate capsules: MMSE and mood assessment by psychiatrist; conditions: single oral capsule 4.05 mg, equivalent to 2 mg psilocin
[2] = psilocin from psilocybin administration; cited from earlier work
[3] = psilocybin dose, equivalent to about 2 mg psilocin; cited from earlier work

## CN(C)CCc1c[nH]c2cccc(O)c12.O=C(O)[C@@H](O)[C@H](O)[C@H](O)[C@@H](O)C(=O)O [psilocin mucate]
[1]
  Time for which demonstrated to be stable: at least 7 months
[1]; capsule, 7 Months
  Appearance, Packaging: Labeled, amber glass bottle with white closure containing 15 partially filled white opaque capsules: Conforms
  Appearance, Product: White to light brown powder partially filling white opaque capsules: Conforms
  Total Impurities TM-22-0392: <0.05%
  Assay TM-22-0392 (% Label Claim): 101.7%
[1]; capsule, 7 Months, all impurities
  Impurities TM-22-0392, individual impurities: All <0.05%
[1]; capsule, Initial
  Appearance, Packaging: Labeled, amber glass bottle with white closure containing 15 partially filled white opaque capsules: Conforms
  Appearance, Product: White to light brown powder partially filling white opaque capsules: Conforms
  Total Impurities TM-22-0392: 0.08%
  Assay TM-22-0392 (% Label Claim): 100.8%
Healthy subjects; one statement per subject (01-10)
  FEELING STATUS: Less anxious, better mood, increase their appetite; also recorded: Feel little beet happier, better energy; also recorded: Feel calm, less thoughts, happier mood; also recorded: Euphoric, better mood, it helps with life stress; also recorded: Euphories, better mood, sleepy, feel time is slower; also recorded: Sleepy, better thoughts, less worried in general; also recorded: Did not feel change in mood but feeling cold; also recorded: More relaxed, want to drink sweet tea, better; also recorded: Better mood, feels hyper sexual; also recorded: Felt high mood, now they feel in good way, ,
Healthy subjects; one value per subject (01-10), scores expected below 25 with a hallucinogenic substance
  MMSE: 29 (2×) and 30 (3×) and 28 (3×) and 27 (2×)

## CN(C)CCc1c[nH]c2cccc(O)c12 [psilocin]
[2]
  Estimated dose-normalized bioavailability: 52.7%

## CN(C)CCc1c[nH]c2cccc(OP(=O)(O)O)c12 [psilocybin, Psilocybin]
[3]
  Lowest dose with reported hallucinogenic effects coupled with increased anxiety: 5 mg
